Experimental data: ChEMBL document CHEMBL1201862, “PubChem BioAssay data set” (2004)
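The compound was tested at five concentrations on cells cultured in 96-well plates, with a 48-hour exposure period. Here, GI50 denotes the concentration required for 50% inhibition of growth.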 Active and inactive are the calls of the source. No stated cut-off is given here; in the data, active = GI50 up to about 1.1 µM and inactive = higher.

What was measured:
Assay in all cases: NCI anticancer screen, dose series, 48 h
OVCAR-8 = test system: OVCAR-8
MDA-MB-435 = test system: MDA-MB-435
RXF 393 = test system: RXF 393
SK-MEL-28 = test system: SK-MEL-28
MDA-MB-231 = test system: MDA-MB-231
SK-OV-3 = test system: SK-OV-3
TK-10 = test system: TK-10
HCT-15 = test system: HCT-15
IGROV-1 = test system: IGROV-1
OVCAR-5 = test system: OVCAR-5
OVCAR-4 = test system: OVCAR-4
HCC 2998 = test system: HCC 2998
BT-549 = test system: BT-549
EKVX = test system: EKVX
SK-MEL-2 = test system: SK-MEL-2
SR = test system: SR
HCT-116 = test system: HCT-116
KM12 = test system: KM12
UACC-257 = test system: UACC-257
NCI-H522 = test system: NCI-H522
MCF7 = test system: MCF7
NCI-H226 = test system: NCI-H226
SF-295 = test system: SF-295
HL-60 = test system: HL-60
SK-MEL-5 = test system: SK-MEL-5
HOP-62 = test system: HOP-62
NCI/ADR-RES = test system: NCI/ADR-RES
786-0 = test system: 786-0
NCI-H460 = test system: NCI-H460
Hs-578T = test system: Hs-578T
HT-29 = test system: HT-29
ACHN = test system: ACHN
SNB-19 = test system: SNB-19
LOX IMVI = test system: LOX IMVI
Malme-3M = test system: Malme-3M
NCI-H23 = test system: NCI-H23
RPMI-8226 = test system: RPMI-8226
A498 = test system: A498
T47D = test system: T47D
K562 = test system: K562
CAKI-1 = test system: CAKI-1
OVCAR-3 = test system: OVCAR-3
UO-31 = test system: UO-31
DU-145 = test system: DU-145
SF-539 = test system: SF-539
U-251 = test system: U-251
M14 = test system: M14
PC-3 = test system: PC-3
CCRF-CEM = test system: CCRF-CEM
SW-620 = test system: SW-620
SN12C = test system: SN12C
UACC-62 = test system: UACC-62
HOP-92 = test system: HOP-92
MOLT-4 = test system: MOLT-4
SF-268 = test system: SF-268
COLO 205 = test system: COLO 205
MDA-N = test system: MDA-N
A549 = test system: A549
SNB-75 = test system: SNB-75

CC(=O)O[C@@H](C1C[C@@H](C)[C@H]2[C@@](O)(O1)[C@H](O)[C@@]1(C)C3=CC[C@H]4C(C)(C)[C@@H](OC5OCC(O)C(O)C5O)CC[C@@]45C[C@@]35CC[C@]21C)C(C)(C)O (some centres undefined)
GI50 (OVCAR-8): 29.8 µM (inactive) | GI50 (MDA-MB-435): 24 µM (inactive) | GI50 (RXF 393): 15.9 µM (inactive) | GI50 (SK-MEL-28): 23.2 µM (inactive) | GI50 (MDA-MB-231): 18.3 µM (inactive) | GI50 (SK-OV-3): 26.5 µM (inactive) | GI50 (TK-10): 22.6 µM (inactive) | GI50 (HCT-15): 28.4 µM | GI50 (IGROV-1): 33.2 µM (inactive) | GI50 (OVCAR-5): 28.6 µM (inactive) | GI50 (OVCAR-4): 33.9 µM (inactive) | GI50 (HCC 2998): 14.3 µM (inactive) | GI50 (BT-549): 26.7 µM (inactive) | GI50 (EKVX): 24.2 µM (inactive) | GI50 (SK-MEL-2): 18.6 µM (inactive) | GI50 (SR): 14.7 µM (inactive) | GI50 (HCT-116): 18.1 µM (inactive) | GI50 (KM12): 22.5 µM (inactive) | GI50 (UACC-257): 19.7 µM (inactive) | GI50 (NCI-H522): 17.8 µM (inactive) | GI50 (MCF7): 17.9 µM (inactive) | GI50 (NCI-H226): 20.6 µM (inactive) | GI50 (SF-295): 21.1 µM (inactive) | GI50 (HL-60): 1.56 µM (inactive) | GI50 (SK-MEL-5): 17.8 µM (inactive) | GI50 (HOP-62): 32.7 µM (inactive) | GI50 (NCI/ADR-RES): 46.8 µM (inactive) | GI50 (786-0): 26.1 µM (inactive) | GI50 (NCI-H460): 18.2 µM (inactive) | GI50 (Hs-578T): 30.1 µM (inactive) | GI50 (HT-29): 25.8 µM (inactive) | GI50 (ACHN): 20.8 µM (inactive) | GI50 (SNB-19): 34.4 µM (inactive) | GI50 (LOX IMVI): 19.5 µM (inactive) | GI50 (Malme-3M): 23.8 µM (inactive) | GI50 (NCI-H23): 22.4 µM (inactive) | GI50 (RPMI-8226): 18 µM (inactive) | GI50 (A498): 23.8 µM (inactive) | GI50 (T47D): 23.7 µM (inactive) | GI50 (K562): 28.2 µM (inactive) | GI50 (CAKI-1): 38.7 µM (inactive) | GI50 (OVCAR-3): 20.7 µM (inactive) | GI50 (UO-31): 30.2 µM (inactive) | GI50 (DU-145): 25.5 µM (inactive) | GI50 (SF-539): 15.7 µM (inactive) | GI50 (U-251): 16.8 µM (inactive) | GI50 (M14): 29.3 µM (inactive) | GI50 (PC-3): 21.7 µM (inactive) | GI50 (CCRF-CEM): 2.82 µM (inactive) | GI50 (SW-620): 30.2 µM (inactive) | GI50 (SN12C): 22.8 µM (inactive) | GI50 (UACC-62): 18.5 µM (inactive) | GI50 (HOP-92): 23.8 µM (inactive) | GI50 (MOLT-4): 12.3 µM (inactive) | GI50 (SF-268): 34 µM (inactive) | GI50 (COLO 205): 22 µM (inactive) | GI50 (MDA-N): 26.9 µM (inactive) | GI50 (A549): 30.6 µM (inactive)

CCOC(=O)c1cnc(N(C)C)nc1SC(=N)N
GI50 (OVCAR-8): > 100 µM (inactive) | GI50 (MDA-MB-435): > 100 µM (inactive) | GI50 (RXF 393): > 100 µM (inactive) | GI50 (SK-MEL-28): > 100 µM (inactive) | GI50 (MDA-MB-231): > 100 µM (inactive) | GI50 (SK-OV-3): > 100 µM (inactive) | GI50 (TK-10): > 100 µM (inactive) | GI50 (HCT-15): > 100 µM | GI50 (IGROV-1): > 100 µM (inactive) | GI50 (OVCAR-5): > 100 µM (inactive) | GI50 (OVCAR-4): > 100 µM (inactive) | GI50 (BT-549): > 100 µM (inactive) | GI50 (EKVX): > 100 µM (inactive) | GI50 (SK-MEL-2): > 100 µM (inactive) | GI50 (SR): 35.6 µM (inactive) | GI50 (HCT-116): > 100 µM (inactive) | GI50 (KM12): > 100 µM (inactive) | GI50 (UACC-257): > 100 µM (inactive) | GI50 (NCI-H522): > 100 µM (inactive) | GI50 (MCF7): > 100 µM (inactive) | GI50 (NCI-H226): > 100 µM (inactive) | GI50 (SF-295): > 100 µM (inactive) | GI50 (SK-MEL-5): > 100 µM (inactive) | GI50 (HOP-62): > 100 µM (inactive) | GI50 (NCI/ADR-RES): > 100 µM (inactive) | GI50 (786-0): > 100 µM (inactive) | GI50 (NCI-H460): > 100 µM (inactive) | GI50 (SNB-75): > 100 µM (inactive) | GI50 (Hs-578T): > 100 µM (inactive) | GI50 (HT-29): > 100 µM (inactive) | GI50 (ACHN): > 100 µM (inactive) | GI50 (SNB-19): > 100 µM (inactive) | GI50 (LOX IMVI): > 100 µM (inactive) | GI50 (Malme-3M): > 100 µM (inactive) | GI50 (NCI-H23): > 100 µM (inactive) | GI50 (RPMI-8226): > 100 µM (inactive) | GI50 (A498): > 100 µM (inactive) | GI50 (T47D): > 100 µM (inactive) | GI50 (K562): > 100 µM (inactive) | GI50 (CAKI-1): > 100 µM (inactive) | GI50 (OVCAR-3): > 100 µM (inactive) | GI50 (DU-145): > 100 µM (inactive) | GI50 (SF-539): > 100 µM (inactive) | GI50 (U-251): > 100 µM (inactive) | GI50 (M14): > 100 µM (inactive) | GI50 (PC-3): > 100 µM (inactive) | GI50 (SW-620): > 100 µM (inactive) | GI50 (SN12C): > 100 µM (inactive) | GI50 (UACC-62): > 100 µM (inactive) | GI50 (HOP-92): > 100 µM (inactive) | GI50 (MOLT-4): 49.2 µM (inactive) | GI50 (SF-268): > 100 µM (inactive) | GI50 (COLO 205): > 100 µM (inactive) | GI50 (MDA-N): > 100 µM (inactive) | GI50 (A549): > 100 µM (inactive)

CC(=O)OCC1OC(N2C(=O)/C(=C\c3ccc(Cl)cc3)C(N)=Nc3ccccc32)C(OC(C)=O)C(OC(C)=O)C1OC(C)=O (centres undefined)
GI50 (OVCAR-8): 13.8 µM (inactive) | GI50 (MDA-MB-435): 16 µM (inactive) | GI50 (RXF 393): 4.34 µM (inactive) | GI50 (SK-MEL-28): 26.1 µM (inactive) | GI50 (MDA-MB-231): 19.3 µM (inactive) | GI50 (SK-OV-3): 51.1 µM (inactive) | GI50 (TK-10): 28.1 µM (inactive) | GI50 (HCT-15): 23 µM | GI50 (IGROV-1): 19.6 µM (inactive) | GI50 (OVCAR-5): 33.4 µM (inactive) | GI50 (OVCAR-4): 20.4 µM (inactive) | GI50 (HCC 2998): 16.1 µM (inactive) | GI50 (BT-549): 27.9 µM (inactive) | GI50 (EKVX): 29.2 µM (inactive) | GI50 (SK-MEL-2): 25.4 µM (inactive) | GI50 (SR): 16.4 µM (inactive) | GI50 (HCT-116): 16.6 µM (inactive) | GI50 (KM12): 14.9 µM (inactive) | GI50 (UACC-257): 23.4 µM (inactive) | GI50 (MCF7): 11.8 µM (inactive) | GI50 (SF-295): 38.8 µM (inactive) | GI50 (HL-60): 33 µM (inactive) | GI50 (SK-MEL-5): 12.7 µM (inactive) | GI50 (HOP-62): 29.2 µM (inactive) | GI50 (NCI/ADR-RES): 51.1 µM (inactive) | GI50 (786-0): 17.7 µM (inactive) | GI50 (NCI-H460): 28.4 µM (inactive) | GI50 (SNB-75): 19.1 µM (inactive) | GI50 (Hs-578T): 28.4 µM (inactive) | GI50 (HT-29): 25.7 µM (inactive) | GI50 (ACHN): 20.2 µM (inactive) | GI50 (SNB-19): 37.8 µM (inactive) | GI50 (LOX IMVI): 17.1 µM (inactive) | GI50 (Malme-3M): 28.2 µM (inactive) | GI50 (NCI-H23): 25.9 µM (inactive) | GI50 (RPMI-8226): 2.24 µM (inactive) | GI50 (A498): 44.6 µM (inactive) | GI50 (T47D): 12.4 µM (inactive) | GI50 (K562): 12.5 µM (inactive) | GI50 (CAKI-1): 37.3 µM (inactive) | GI50 (OVCAR-3): 15.4 µM (inactive) | GI50 (UO-31): 20.7 µM (inactive) | GI50 (DU-145): 28.8 µM (inactive) | GI50 (SF-539): 10.1 µM (inactive) | GI50 (U-251): 14.6 µM (inactive) | GI50 (M14): 20.2 µM (inactive) | GI50 (PC-3): 20.6 µM (inactive) | GI50 (SW-620): 23.2 µM (inactive) | GI50 (SN12C): 29.2 µM (inactive) | GI50 (UACC-62): 29.4 µM (inactive) | GI50 (HOP-92): 17.2 µM (inactive) | GI50 (MOLT-4): 6.43 µM (inactive) | GI50 (SF-268): 18.2 µM (inactive) | GI50 (COLO 205): 12.1 µM (inactive) | GI50 (MDA-N): 17.6 µM (inactive) | GI50 (A549): 27.8 µM (inactive)
